Target: human FXR (NR1H4) (Homo sapiens (Human), UniProt Q96RI1)
Test: Human FXR (NR1H4) Assay (Gal4 promoter driven luciferase reporter, Indigo Bioscience kit);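 on Efficacy (%): 100% equals the efficacy of CDCA; efficacy normalized to CDCA set as 100%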
Format: cell-based
Settings: for EC50: Human FXR (NR1H4) Assay, potency ranges; for Emax: read-out: Efficacy (%)
Excerpt: ASSAYS Human FXR (NR1H4) Assay
Determination of a ligand mediated Gal4 promoter driven transactivation to quantify ligand binding mediated activation of FXR. FXR Reporter Assay kit purchased from Indigo Bioscience (Catalogue number: IB00601) to determine the potency and efficacy of compound developed by Enanta that can induce FXR activation. The principle application of this reporter assay system is to quantify functional activity of human FXR. The assay utilizes non-human mammalian cells, CHO (Chinese hamster ovary) cells engineered to express human NR1H4 protein (referred to as FXR). Reporter cells also incorporate the cDNA encoding beetle luciferase which catalyzes the substrates and yields photon emission. Luminescence intensity of the reaction is quantified using a plate-reading luminometer, Envision. Reporter Cells include the luciferase reporter gene functionally linked to an FXR responsive promoter. Thus, quantifying changes in luciferase expression in the treated reporter cells provides a sensitive surrogate measure of the changes in FXR activity. […] The assay is according to the manufacturer's instructions. In brief, the assay was performed in white, 96 well plates using final volume of 100 uL containing cells with different doses of compounds. Retrieve Reporter Cells from −80° C. storage. Perform a rapid thaw of the frozen cells by transferring a 10 ml volume of 37° C. cell recovery medium into the tube of frozen cells. Recap the tube of Reporter Cells and immediately place it in a 37° C. water bath for 5-10 minutes. Retrieve the tube of Reporter Cell Suspension from the water bath. Sanitize the outside surface of the tube with a 70% alcohol swab, and then transfer it into the cell culture hood. Dispense 90 μl of cell suspension into each well of the 96-well Assay Plate. Transfer the plate into 37° C. incubator, allowing the cells adherent to the bottom of the well. Dilute compounds in Dilution Plate (DP), and administrate to cells at Assay Plate (AP). DMSO content of the samples was kept at 0.2%. Cells were incubated for additional 22 hours before luciferase activities were measured. Thirty minutes before intending to quantify FXR activity, remove Detection Substrate and Detection Buffer from the refrigerator and place them in a low-light area so that they may equilibrate to room temperature. Remove the plate's lid and discard all media contents by ejecting it into an appropriate waste container. Gently tap the inverted plate onto a clean absorbent paper towel to remove residual droplets. Cells will remain tightly adhered to well bottoms. Add 100 μl of luciferase detection reagent to each well of the assay plate. Allow the assay plate to rest at room temperature for at least 5 minutes following the addition of LDR. Set the instrument (Envision) to perform a single 5 second “plate shake” prior to reading the first assay well. Read time may be 0.5 second (500 mSec) per well.

Sequence of human FXR (NR1H4) (Q96RI1 whole entry, the tested form may be a part): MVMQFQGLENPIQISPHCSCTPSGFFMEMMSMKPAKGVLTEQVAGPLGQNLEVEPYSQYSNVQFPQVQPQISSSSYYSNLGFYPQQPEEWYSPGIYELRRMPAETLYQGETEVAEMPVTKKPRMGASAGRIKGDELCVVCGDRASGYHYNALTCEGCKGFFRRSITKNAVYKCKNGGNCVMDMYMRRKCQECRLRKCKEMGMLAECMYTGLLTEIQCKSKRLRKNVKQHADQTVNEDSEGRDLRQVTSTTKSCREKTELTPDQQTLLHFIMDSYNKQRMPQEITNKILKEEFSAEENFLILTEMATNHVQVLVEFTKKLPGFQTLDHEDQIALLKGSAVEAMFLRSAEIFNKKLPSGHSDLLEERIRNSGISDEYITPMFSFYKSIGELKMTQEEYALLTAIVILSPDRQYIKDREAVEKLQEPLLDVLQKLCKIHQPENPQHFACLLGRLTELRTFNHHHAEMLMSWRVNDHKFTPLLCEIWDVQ

SMILES	EC50	Emax
CC[C@H]1[C@@H](O)[C@@H]2[C@H](CC[C@]3(C)[C@@H]([C@H](C)CCCOC(=O)NS(=O)(=O)N4CCCC4)CC[C@@H]23)[C@@]2(C)CC[C@@H](O)C[C@@H]12 [Example 119]	1 to 10 µM	370%
CC[C@H]1[C@@H](O)[C@@H]2[C@H](CC[C@]3(C)[C@@H]([C@H](C)COC(=O)NS(=O)(=O)C4CCCCC4)CC[C@@H]23)[C@@]2(C)CC[C@@H](O)C[C@@H]12 [Example 8]	0.1 to 1 µM	327%
CC[C@H]1[C@@H](O)[C@@H]2[C@H](CC[C@]3(C)[C@@H]([C@H](C)CCOC(=O)NS(=O)(=O)c4ccc(OC)cc4)CC[C@@H]23)[C@@]2(C)CC[C@@H](O)C[C@@H]12 [Example 52]	< 0.1 µM	226%
CC[C@H]1[C@@H](O)[C@@H]2[C@H](CC[C@]3(C)[C@@H]([C@H](C)CCOC(=O)N[C@@H](C)C4CC4)CC[C@@H]23)[C@@]2(C)CC[C@@H](O)C[C@@H]12 [Example 175]	0.1 to 1 µM	210%
CC[C@H]1[C@@H](O)[C@@H]2[C@H](CC[C@]3(C)[C@@H]([C@H](C)CCOC(=O)N(C)OC)CC[C@@H]23)[C@@]2(C)CC[C@@H](O)C[C@@H]12 [Example 164]	0.1 to 1 µM	191%
CC[C@H]1[C@@H](O)[C@@H]2[C@H](CC[C@]3(C)[C@@H]([C@H](C)CCOC(=O)NCc4ccc(C(=O)O)cc4)CC[C@@H]23)[C@@]2(C)CC[C@@H](O)C[C@@H]12 [Example 159]	0.1 to 1 µM	221%
CC[C@H]1[C@@H](O)[C@@H]2[C@H](CC[C@]3(C)[C@@H]([C@H](C)CCOC(=O)NS(=O)(=O)c4ccc5ccsc5c4)CC[C@@H]23)[C@@]2(C)CC[C@@H](O)C[C@@H]12 [Example 104-f]	< 0.1 µM	213%
CC[C@H]1[C@@H](O)[C@@H]2[C@H](CC[C@]3(C)[C@@H]([C@H](C)CCOC(=O)NS(=O)(=O)c4cc(C(F)(F)F)cc(C(F)(F)F)c4)CC[C@@H]23)[C@@]2(C)CC[C@@H](O)C[C@@H]12 [Example 104-h]	1 to 10 µM	208%
CC[C@H]1[C@@H](O)[C@@H]2[C@H](CC[C@]3(C)[C@@H]([C@H](C)CCOC(=O)NC4CCCC4)CC[C@@H]23)[C@@]2(C)CC[C@@H](O)C[C@@H]12 [Example 134]	0.1 to 1 µM	267%
CC[C@H]1[C@@H](O)[C@@H]2[C@H](CC[C@]3(C)[C@@H]([C@H](C)CCOC(=O)NC(C)(C)C)CC[C@@H]23)[C@@]2(C)CC[C@@H](O)C[C@@H]12 [Example 192]	1 to 10 µM	186%
CC[C@H]1[C@@H](O)[C@@H]2[C@H](CC[C@]3(C)[C@@H]([C@H](C)CCCOC(=O)NS(=O)(=O)N(C)C)CC[C@@H]23)[C@@]2(C)CC[C@@H](O)C[C@@H]12 [Example 118]	0.1 to 1 µM	367%
CC[C@H]1[C@@H](O)[C@@H]2[C@H](CC[C@]3(C)[C@@H]([C@H](C)CCOC(=O)NS(=O)(=O)CCOC)CC[C@@H]23)[C@@]2(C)CC[C@@H](O)C[C@@H]12 [Example 83]	0.1 to 1 µM	275%
CC[C@H]1[C@@H](O)[C@@H]2[C@H](CC[C@]3(C)[C@@H]([C@H](C)COC(=O)NS(=O)(=O)c4ccc(-n5ccnc5)cc4)CC[C@@H]23)[C@@]2(C)CC[C@@H](O)C[C@@H]12 [Example 44-h]	0.1 to 1 µM	194%
CC[C@H]1[C@@H](O)[C@@H]2[C@H](CC[C@]3(C)[C@@H]([C@H](C)CCOC(=O)NCc4ccc(C(C)(C)C)cc4)CC[C@@H]23)[C@@]2(C)CC[C@@H](O)C[C@@H]12 [Example 189]	1 to 10 µM	215%
CC[C@H]1[C@@H](O)[C@@H]2[C@H](CC[C@]3(C)[C@@H]([C@H](C)CCOC(=O)N4CCC4)CC[C@@H]23)[C@@]2(C)CC[C@@H](O)C[C@@H]12 [Example 162]	0.1 to 1 µM	277%
CC[C@H]1[C@@H](O)[C@@H]2[C@H](CC[C@]3(C)[C@@H]([C@H](C)CCOC(=O)NS(=O)(=O)c4ccncc4)CC[C@@H]23)[C@@]2(C)CC[C@@H](O)C[C@@H]12 [Example 73]	1 to 10 µM	352%

SMILES	EC50	Emax
CC[C@H]1[C@@H](O)[C@@H]2[C@H](CC[C@]3(C)[C@@H]([C@H](C)CCOC(=O)NCCCN4CCOCC4)CC[C@@H]23)[C@@]2(C)CC[C@@H](O)C[C@@H]12 [Example 152]	0.1 to 1 µM	276%
CC[C@H]1[C@@H](O)[C@@H]2[C@H](CC[C@]3(C)[C@@H]([C@H](C)CCOC(=O)Nc4ccc(F)cc4Cl)CC[C@@H]23)[C@@]2(C)CC[C@@H](O)C[C@@H]12 [Example 193]	1 to 10 µM	179%
CC[C@H]1[C@@H](O)[C@@H]2[C@H](CC[C@]3(C)[C@@H]([C@H](C)CCOC(=O)NS(=O)(=O)c4ccc(OC)c(F)c4)CC[C@@H]23)[C@@]2(C)CC[C@@H](O)C[C@@H]12 [Example 94]	< 0.1 µM	268%
CC[C@H]1[C@@H](O)[C@@H]2[C@H](CC[C@]3(C)[C@@H]([C@H](C)COC(=O)NS(=O)(=O)c4ccc(OC)cc4)CC[C@@H]23)[C@@]2(C)CC[C@@H](O)C[C@@H]12 [Example 44-k]	< 0.1 µM	158%
CC[C@H]1[C@@H](O)[C@@H]2[C@H](CC[C@]3(C)[C@@H]([C@H](C)COC(=O)NS(=O)(=O)c4ccc(N5CCOCC5)cc4)CC[C@@H]23)[C@@]2(C)CC[C@@H](O)C[C@@H]12 [Example 19]	< 0.1 µM	219%
CC[C@H]1[C@@H](O)[C@@H]2[C@H](CC[C@]3(C)[C@@H]([C@H](C)CCCOC(=O)NS(=O)(=O)C4CCCCC4)CC[C@@H]23)[C@@]2(C)CC[C@@H](O)C[C@@H]12 [Example 2]	0.1 to 1 µM	247%
CC[C@H]1[C@@H](O)[C@@H]2[C@H](CC[C@]3(C)[C@@H]([C@H](C)COC(=O)NS(=O)(=O)c4ccc(C(C)(C)C)s4)CC[C@@H]23)[C@@]2(C)CC[C@@H](O)C[C@@H]12 [Example 44-j]	< 0.1 µM	170%
CC[C@H]1[C@@H](O)[C@@H]2[C@H](CC[C@]3(C)[C@@H]([C@H](C)CCOC(=O)NCC(C)(C)O)CC[C@@H]23)[C@@]2(C)CC[C@@H](O)C[C@@H]12 [Example 142]	0.1 to 1 µM	247%
CCOC(=O)C1CCN(C(=O)OCC[C@@H](C)[C@H]2CC[C@H]3[C@@H]4[C@H](O)[C@H](CC)[C@@H]5C[C@H](O)CC[C@]5(C)[C@H]4CC[C@]23C)CC1 [Example 145]	1 to 10 µM	247%
CC[C@H]1[C@@H](O)[C@@H]2[C@H](CC[C@]3(C)[C@@H]([C@H](C)CCOC(=O)NS(=O)(=O)c4ccccc4OC(F)(F)F)CC[C@@H]23)[C@@]2(C)CC[C@@H](O)C[C@@H]12 [Example 77]	0.1 to 1 µM	383%
CC[C@H]1[C@@H](O)[C@@H]2[C@H](CC[C@]3(C)[C@@H]([C@H](C)CCOC(=O)NCC4CCCCC4)CC[C@@H]23)[C@@]2(C)CC[C@@H](O)C[C@@H]12 [Example 188]	0.1 to 1 µM	459%
CC[C@H]1[C@@H](O)[C@@H]2[C@H](CC[C@]3(C)[C@@H]([C@H](C)COC(=O)NS(=O)(=O)c4ccc(-n5ccnn5)nc4)CC[C@@H]23)[C@@]2(C)CC[C@@H](O)C[C@@H]12 [Example 44-n]	0.1 to 1 µM	307%
CC[C@H]1[C@@H](O)[C@@H]2[C@H](CC[C@]3(C)[C@@H]([C@H](C)CCOC(=O)N4CCc5sccc5C4)CC[C@@H]23)[C@@]2(C)CC[C@@H](O)C[C@@H]12 [Example 173]	0.1 to 1 µM	209%
CC[C@H]1[C@@H](O)[C@@H]2[C@H](CC[C@]3(C)[C@@H]([C@H](C)CCOC(=O)N(CC)CC)CC[C@@H]23)[C@@]2(C)CC[C@@H](O)C[C@@H]12 [Example 163]	0.1 to 1 µM	266%
CC[C@H]1[C@@H](O)[C@@H]2[C@H](CC[C@]3(C)[C@@H]([C@H](C)CCOC(=O)NCC(=O)O)CC[C@@H]23)[C@@]2(C)CC[C@@H](O)C[C@@H]12 [Example 157]	1 to 10 µM	178%

Source: patent publication US10457703B2, “Bile acid derivatives as FXR/TGR5 agonists and methods of use thereof” (ENANTA PHARMACEUTICALS, INC., priority 2015, dated 2019)
